What all share (experiment): Caspase activity in extracts of U937 cell line induced to apoptosis with camptothecin
Holding throughout (format): cell-based, human

One assay has as its system caspase 2. Particulars: U937 Cell Line Induced (G3), camptothecin 10 micrograms per mL; n 4; uninduced 50 ± 32. As for the experimental part:
(§1) Caspase levels in PBMC extracts were measured using a commercially available kit (BioSource International) based on a calorimetric assay. Briefly, PBMC extracts were diluted to a final concentration of 1 microgram of protein per 50 microliters of diluent (provided with the kit). This sample (1 microgram) was then added to 55 microliters of assay buffer containing a substrate specific for the particular caspase to be measured (if caspase activity is present, the substrate is cleaved, liberating color). Cell extracts to be used as positive and negative controls for caspase activity levels were prepared using the method of […] et al. (1999), Oncogene 14:1007-1012). Briefly, the human monocytic leukemia cell line U937 was induced to begin apoptosis by treatment with camptothecin at a concentration of 10 micrograms per mL of 2×10^6 cells. Uninduced cells were used as the negative control. Also included as a negative control were normal human monocytes, elutriated and frozen as live cells. All cell extracts and protein determinations were made as described above. The reaction mixture (1 microgram protein sample+caspase substrate) was incubated at 37 degrees C. for 20-24 hours. The resultant color was measured using a spectrophotometer at a wavelength of 405 nm. Background absorbance (i.e., from a reagent blank without protein) was subtracted from all sample values. All assays were performed in triplicate, […]

For another assay, the system named is caspase 3. As for the experimental part:
as §1

The next assay concerns caspase 6. The note with it: U937 Cell Line Induced (G3), camptothecin 10 micrograms per mL; n 4; uninduced 162 ± 20. On the procedure:
as §1

The subject of the next assay is caspase 8. Particulars: U937 Cell Line Induced (G3), camptothecin 10 micrograms per mL; n 4; uninduced 91 ± 11. On the procedure: as §1
For a further assay, the system named is caspase 9. Particulars: U937 Cell Line Induced (G3), camptothecin 10 micrograms per mL; n 4; uninduced 45 ± 6. On the procedure: as §1

The values that follow come from US6808936B1, “Methods and compositions for use in the diagnosis and treatment of chronic immune disease” (R.E.D. Laboratories, N.V., priority 2000, dated 2004).

In the assay with caspase 2, `CC[C@@]1(O)C(=O)OCc2c1cc1n(c2=O)Cc2cc3ccccc3nc2-1` [camptothecin] came in with a C2 caspase activity of 251 ± 39. Further, the “Caspase 3 Activity” value with caspase 3 (Table 2: U937 Cell Line Induced (G3), camptothecin, mean ± s.d. of triplicates, uninduced 82 ± 9) is recorded as 336 ± 6 mAU. The same molecule yielded a C3 caspase activity in the assay on caspase 3 (U937 Cell Line Induced (G3), camptothecin 10 micrograms per mL, n 4, uninduced 73 ± 26) of 304 ± 50. Moreover, the C6 caspase activity with caspase 6 was determined as 277 ± 57. In the assay on caspase 8, this molecule showed a C8 caspase activity of 207 ± 52. Also, in the assay on caspase 9, the C9 caspase activity is 90 ± 29.
